For one assay, the system named is AGS. Kind of assay: cells. The settings on record: Homo sapiens, 72 h.
Another assay relates to BGC-823. Kind of assay: cells. As to conditions: Homo sapiens, BGC-823, 72 h.
The subject of another assay is MKN-1. As to the kind of experiment: cells. The settings on record: Homo sapiens, MKN-1, 72 h.
A further assay concerns MKN-45. As to the kind of experiment: cells. The settings on record: Homo sapiens, MKN-45, 72 h.
For the next assay, the system named is NCI-N87. Kind of assay: cells. As to conditions: Homo sapiens, NCI-N87, 72 h.
Another assay has as its system SNU1. As to the kind of experiment: cells. As to conditions: Homo sapiens, SNU1, 72 h.
The target of assay [1] is T1, Lysine-specific histone demethylase 1A (Homo sapiens, UniProt O60341). Kind of assay: Inhibition of recombinant LSD1 (157 to 852 residues) (unknown origin) expressed in Escherichia coli BL21 (DE) at 10 uM using H3K4me2 as substrate by amplex red assay relative to control.
The next assay relates to HCT-116. Kind of assay: cells. As to conditions: Homo sapiens, HCT-116, 72 h.
In a further assay the test system is MGC-803. Kind of assay: cells. The settings on record: Homo sapiens, MGC-803, 72 h.
The target of assay [2] is T1, Lysine-specific histone demethylase 1A. As to the kind of experiment: Inhibition of recombinant LSD1 (157 to 852 residues) (unknown origin) expressed in Escherichia coli BL21 (DE) using H3K4me2 as substrate by amplex red assay.
For the next assay, the target named is Histone deacetylase 1 (Homo sapiens, UniProt Q13547). As to the kind of experiment: Inhibition of HDAC1 (unknown origin) using Ac-peptide as substrate preincubated for 15 mins followed by substrate addition by fluorescence assay.
Histone deacetylase 1, sequence (Q13547 whole entry): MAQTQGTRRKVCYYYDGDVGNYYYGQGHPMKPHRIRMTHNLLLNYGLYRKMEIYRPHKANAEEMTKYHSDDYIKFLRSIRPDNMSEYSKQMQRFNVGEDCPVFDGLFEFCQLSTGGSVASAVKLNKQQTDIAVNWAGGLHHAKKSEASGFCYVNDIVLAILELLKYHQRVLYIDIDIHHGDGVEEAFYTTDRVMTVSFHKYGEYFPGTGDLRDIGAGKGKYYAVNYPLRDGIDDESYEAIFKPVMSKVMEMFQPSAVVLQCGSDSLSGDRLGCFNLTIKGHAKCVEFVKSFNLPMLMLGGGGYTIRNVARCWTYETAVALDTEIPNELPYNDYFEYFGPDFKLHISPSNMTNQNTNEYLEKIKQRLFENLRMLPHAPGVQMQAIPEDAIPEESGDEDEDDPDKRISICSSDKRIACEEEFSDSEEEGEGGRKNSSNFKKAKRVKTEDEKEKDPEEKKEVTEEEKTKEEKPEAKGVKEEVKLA
The target in the next assay is Histone deacetylase 5 (Homo sapiens, UniProt Q9UQL6). As to the kind of experiment: Inhibition of HDAC5 (unknown origin) using Ac-peptide as substrate preincubated for 15 mins followed by substrate addition by fluorescence assay.
Histone deacetylase 5, sequence (Q9UQL6 whole entry): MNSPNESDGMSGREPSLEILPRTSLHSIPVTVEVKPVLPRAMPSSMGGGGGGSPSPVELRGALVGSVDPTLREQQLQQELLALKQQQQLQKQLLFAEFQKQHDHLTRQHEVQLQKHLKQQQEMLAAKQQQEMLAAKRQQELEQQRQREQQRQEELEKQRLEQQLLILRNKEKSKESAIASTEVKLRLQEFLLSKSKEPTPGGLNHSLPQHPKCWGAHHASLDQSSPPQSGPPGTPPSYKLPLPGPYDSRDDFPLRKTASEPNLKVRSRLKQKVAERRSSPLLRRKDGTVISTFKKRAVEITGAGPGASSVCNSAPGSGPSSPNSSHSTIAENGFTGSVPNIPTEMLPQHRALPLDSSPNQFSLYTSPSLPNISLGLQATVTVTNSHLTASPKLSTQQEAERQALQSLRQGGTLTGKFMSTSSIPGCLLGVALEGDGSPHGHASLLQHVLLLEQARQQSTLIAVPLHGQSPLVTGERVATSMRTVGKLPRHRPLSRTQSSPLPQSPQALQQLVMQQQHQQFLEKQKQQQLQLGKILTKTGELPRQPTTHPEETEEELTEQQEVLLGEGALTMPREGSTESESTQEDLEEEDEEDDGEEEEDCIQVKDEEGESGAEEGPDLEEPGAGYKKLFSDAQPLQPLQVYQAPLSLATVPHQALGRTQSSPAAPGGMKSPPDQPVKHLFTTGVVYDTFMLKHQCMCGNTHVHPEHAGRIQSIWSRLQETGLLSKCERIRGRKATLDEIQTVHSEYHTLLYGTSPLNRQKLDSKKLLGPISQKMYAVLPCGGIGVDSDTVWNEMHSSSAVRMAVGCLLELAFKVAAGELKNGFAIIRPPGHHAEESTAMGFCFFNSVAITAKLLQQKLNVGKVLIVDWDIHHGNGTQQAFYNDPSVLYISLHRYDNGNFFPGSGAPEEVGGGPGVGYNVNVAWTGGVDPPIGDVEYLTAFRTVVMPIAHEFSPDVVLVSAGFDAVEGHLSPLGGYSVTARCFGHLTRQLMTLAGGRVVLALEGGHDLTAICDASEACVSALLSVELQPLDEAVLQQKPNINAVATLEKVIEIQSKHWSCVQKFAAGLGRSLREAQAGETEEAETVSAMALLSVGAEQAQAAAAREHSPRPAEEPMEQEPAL
The target in assay [3] is T2, Protein deacetylase HDAC6 (Homo sapiens, UniProt Q9UBN7).
T2 sequence (Q9UBN7 whole entry): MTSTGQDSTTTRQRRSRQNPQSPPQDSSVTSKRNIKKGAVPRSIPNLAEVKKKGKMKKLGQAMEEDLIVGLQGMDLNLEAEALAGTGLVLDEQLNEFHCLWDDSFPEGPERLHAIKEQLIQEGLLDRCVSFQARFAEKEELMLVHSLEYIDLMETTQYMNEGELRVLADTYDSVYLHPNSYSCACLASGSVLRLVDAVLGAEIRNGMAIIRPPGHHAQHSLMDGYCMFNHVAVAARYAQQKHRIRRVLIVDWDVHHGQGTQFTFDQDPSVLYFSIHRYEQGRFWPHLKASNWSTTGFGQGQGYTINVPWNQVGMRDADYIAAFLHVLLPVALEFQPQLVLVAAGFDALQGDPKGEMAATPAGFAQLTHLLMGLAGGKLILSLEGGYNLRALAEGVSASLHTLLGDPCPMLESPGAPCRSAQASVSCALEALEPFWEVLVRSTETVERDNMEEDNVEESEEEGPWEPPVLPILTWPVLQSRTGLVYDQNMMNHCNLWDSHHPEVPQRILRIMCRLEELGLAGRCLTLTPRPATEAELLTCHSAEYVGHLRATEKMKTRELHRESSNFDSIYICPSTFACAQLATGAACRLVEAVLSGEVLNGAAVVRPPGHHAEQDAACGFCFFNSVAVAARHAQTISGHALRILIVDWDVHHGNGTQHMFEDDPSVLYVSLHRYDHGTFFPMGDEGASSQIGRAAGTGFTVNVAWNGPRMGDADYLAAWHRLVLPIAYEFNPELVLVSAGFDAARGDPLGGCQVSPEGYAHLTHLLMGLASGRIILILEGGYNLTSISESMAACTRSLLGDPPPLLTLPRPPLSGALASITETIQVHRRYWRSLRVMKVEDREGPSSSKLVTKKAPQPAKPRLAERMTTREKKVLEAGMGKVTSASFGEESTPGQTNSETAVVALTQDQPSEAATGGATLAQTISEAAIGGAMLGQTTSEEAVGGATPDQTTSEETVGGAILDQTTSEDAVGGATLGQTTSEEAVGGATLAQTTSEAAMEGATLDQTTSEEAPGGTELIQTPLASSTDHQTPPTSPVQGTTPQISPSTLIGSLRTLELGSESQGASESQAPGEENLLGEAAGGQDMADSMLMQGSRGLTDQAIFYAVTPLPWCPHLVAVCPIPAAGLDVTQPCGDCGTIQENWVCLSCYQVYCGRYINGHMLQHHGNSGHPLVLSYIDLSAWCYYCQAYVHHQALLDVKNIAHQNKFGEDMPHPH
As to the kind of experiment: Inhibition of HDAC6 (unknown origin) using Ac-peptide as substrate preincubated for 15 mins followed by substrate addition by fluorescence assay.

Bounds are passed on as bounds.

Take `N[C@H]1CC[C@H](N[C@@H]2C[C@H]2c2ccccc2)CC1`: the IC50 with AGS, with BGC-823, in the assay on MKN-1, with MKN-45, in the assay with NCI-N87 and with SNU1 was greater than 50 µM in each case.
Consider `O=C(NO)c1ccc(/C=C/c2cncc(-c3ccc(C(F)(F)F)cc3)c2)cc1`, for which the inhibition in assay [1] was 5.6%. Also, the IC50 with HCT-116 and in the assay on MGC-803 was greater than 10 µM in each case.
For the compound `C/C(=N\NC(=O)c1cccc(S(=O)(=O)N2CCOCC2)c1)c1cc(Cl)ccc1O`, the IC50 is 6.19 µM in the assay with AGS; 8.08 µM with BGC-823; 8.98 µM in the assay with MKN-1; 26.7 µM in the assay on MKN-45; 10.5 µM with NCI-N87; 8.03 µM with SNU1.
In the case of `O=C(NO)c1ccc(/C=C/c2ccncc2)cc1`, the IC50 in assay [2] was 0.85 µM; at Histone deacetylase 1, 0.63 µM; on Histone deacetylase 5, greater than 10 µM; in [3], 0.13 µM; with HCT-116, 3.91 µM; with MGC-803, 3.93 µM.
With `O=C(NO)c1ccc(/C=C/c2ccnc(-c3ccc(F)cc3)c2)cc1`, the inhibition in assay [1] turned out to be 21.2%. For the same compound, the IC50 in the assay with HCT-116 and in the assay on MGC-803 was greater than 10 µM in each case.
Take `Cc1ccc(-c2cncc(/C=C/c3ccc(C(=O)NO)cc3)c2)cc1`: the inhibition in [1] worked out at 29.8%. Moreover, the IC50 against Histone deacetylase 1 was 43.6 µM; with HCT-116, greater than 10 µM; in the assay on MGC-803 it was greater than 10 µM.
For the compound `O=C(NO)c1ccc(/C=C/c2ccnc(-c3ccsc3)c2)cc1`, the IC50 in assay [2] was 2.03 µM; against Histone deacetylase 1, 0.21 µM; against Histone deacetylase 5 it was greater than 10 µM; in assay [3], 0.054 µM; in the assay on HCT-116 it was 1.91 µM; in the assay with MGC-803, 3.68 µM.
Consider `O=C(NO)c1ccc(/C=C/c2cncc(-c3ccccc3O)c2)cc1`, for which the IC50 was 0.51 µM in assay [2]; 3.37 µM at Histone deacetylase 1; greater than 10 µM on Histone deacetylase 5; 0.013 µM in [3]; 4.68 µM with HCT-116; 5.46 µM with MGC-803.
On to `Cc1ccc(-c2cc(/C=C/c3ccc(C(=O)NO)cc3)ccn2)cc1`, for which the IC50 in [2] is 2.7 µM; against Histone deacetylase 1 it was 0.96 µM; on Histone deacetylase 5, greater than 10 µM; in [3], 0.15 µM; in the assay on HCT-116, 2.39 µM; in the assay with MGC-803, 1.91 µM.
In the case of `O=C(NO)c1ccc(/C=C/c2ccnc(-c3ccc(C(F)(F)F)cc3)c2)cc1`, in assay [1], the inhibition was found to be 33%. The IC50 was 4.84 µM against Histone deacetylase 1, greater than 10 µM in the assay on HCT-116 and greater than 10 µM in the assay on MGC-803.
For the compound `O=C(NO)c1ccc(/C=C/c2ccnc(-c3cccc(CO)c3)c2)cc1`, the IC50 was 1.14 µM in [2]; 0.28 µM against Histone deacetylase 1; greater than 10 µM against Histone deacetylase 5; 0.034 µM in assay [3]; 1.7 µM with HCT-116; 1.74 µM in the assay on MGC-803.
Turning to `COc1ccccc1-c1cc(/C=C/c2ccc(C(=O)NO)cc2)ccn1`, the half-maximal inhibitory concentration (IC50) is 1.07 µM in assay [2]; 1.04 µM on Histone deacetylase 1; greater than 10 µM against Histone deacetylase 5; 0.028 µM in assay [3]; 8.44 µM with HCT-116; 6.35 µM with MGC-803.
For the compound `COc1ccc(-c2cc(/C=C/c3ccc(C(=O)NO)cc3)ccn2)cc1`, the IC50 was 1.9 µM in [2]; 0.69 µM on Histone deacetylase 1; greater than 10 µM at Histone deacetylase 5; 0.11 µM in [3]; 3.56 µM in the assay on HCT-116; 3.51 µM with MGC-803.
Consider `Cc1ccc(-c2cc(/C=C/c3ccc(C(=O)NO)cc3)c(F)cn2)c(F)c1`, for which the inhibition in assay [1] came out at 55.2%. Besides, the IC50 was found to be 0.88 µM on Histone deacetylase 1, 1.67 µM with HCT-116 and 2.51 µM in the assay on MGC-803.
`O=C(NO)c1ccc(/C=C/c2cccc(-c3cccc(O)c3)c2)cc1`: the IC50 in assay [2] was 3.65 µM; against Histone deacetylase 1, 1.24 µM; against Histone deacetylase 5 it was greater than 10 µM; in [3], 0.2 µM; in the assay on HCT-116 it was greater than 10 µM; in the assay on MGC-803, 8.82 µM.
In the case of `O=C(NO)c1ccc(/C=C/c2ccnc(-c3cccc(O)c3)c2)cc1`, the IC50 was 1.83 µM in assay [2]; 0.29 µM on Histone deacetylase 1; greater than 10 µM against Histone deacetylase 5; 0.019 µM in [3]; 1.61 µM in the assay with HCT-116; 2.1 µM in the assay on MGC-803.
On to `O=C(NO)c1ccc(/C=C/c2ccnc(-c3cccnc3)c2)cc1`, for which the IC50 in assay [2] is 1.37 µM; on Histone deacetylase 1, 0.58 µM; against Histone deacetylase 5, greater than 10 µM; in assay [3], 0.014 µM; in the assay on HCT-116, 5.14 µM; in the assay on MGC-803, 4.55 µM.
For `O=C(NO)c1ccc(/C=C/c2cccc(-c3cc(F)ccc3O)c2)cc1`, the IC50 in assay [2] is 3.51 µM; at Histone deacetylase 1, 2.12 µM; at Histone deacetylase 5 it was greater than 10 µM; in assay [3] it was 0.24 µM; in the assay on HCT-116 it was greater than 10 µM; with MGC-803 it was greater than 10 µM.
For the compound `O=C(NO)c1ccc(/C=C/c2cc(-c3ccc(C(F)(F)F)cc3)ncc2F)cc1`, in [1], the inhibition stood at 5.6%. Also, the IC50 against Histone deacetylase 1 was 2.95 µM; with HCT-116 it was greater than 10 µM; with MGC-803, greater than 10 µM.
Take `Cc1ccc(-c2cc(/C=C/c3ccc(C(=O)NO)cc3)c(F)cn2)cc1`: the inhibition in assay [1] worked out at 20.7%. Further, the IC50 against Histone deacetylase 1 was 1.18 µM; with HCT-116 it was greater than 10 µM; in the assay on MGC-803, greater than 10 µM.
`O=C(NO)c1ccc(/C=C/c2ccnc(Br)c2)cc1`: the IC50 was 1.02 µM in assay [2]; 3.66 µM on Histone deacetylase 1; greater than 10 µM at Histone deacetylase 5; 0.32 µM in assay [3]; greater than 10 µM in the assay with HCT-116; greater than 10 µM in the assay with MGC-803.
For `O=C(NO)c1ccc(/C=C/c2cccc(-c3ccccc3O)c2)cc1`, the IC50 in [2] was 1.95 µM; against Histone deacetylase 1, 0.93 µM; on Histone deacetylase 5 it was greater than 10 µM; in [3], 0.18 µM; in the assay with HCT-116 it was 4.23 µM; with MGC-803 it was 5.99 µM.
With `COc1ccc(F)cc1-c1cncc(/C=C/c2ccc(C(=O)NO)cc2)c1`, the IC50 is 1.6 µM in assay [2]; 0.67 µM on Histone deacetylase 1; greater than 10 µM at Histone deacetylase 5; 0.093 µM in [3]; 3.41 µM in the assay on HCT-116; 3.36 µM in the assay on MGC-803.
On to `O=C(NO)c1ccc(/C=C/c2ccnc(-c3cc(F)ccc3O)c2)cc1`, for which the IC50 amounted to 2.2 µM in assay [2]; 1.14 µM at Histone deacetylase 1; 9.34 µM against Histone deacetylase 5; 0.13 µM in assay [3]; 2.04 µM with HCT-116; 1.92 µM in the assay on MGC-803.
`Cc1ccc(-c2cncc(/C=C/c3ccc(C(=O)NO)cc3)c2)c(F)c1`: the IC50 in [2] was 3.06 µM; against Histone deacetylase 1 it was 1.07 µM; on Histone deacetylase 5, greater than 10 µM; in assay [3] it was 0.15 µM; in the assay with HCT-116, 2.99 µM; in the assay with MGC-803, 2.24 µM.
Consider `O=C(/C=C/c1ccc(/C=C/c2ccnc(-c3ccccc3O)c2)cc1)NO`, for which the inhibition in assay [1] stood at 22.9%. Besides, the IC50 against Histone deacetylase 1 was 0.47 µM; in the assay with HCT-116, greater than 10 µM; with MGC-803, greater than 10 µM.

One may read the IC50 as the midpoint of a concentration-inhibition curve. What is called inhibition is the change of the read-out against control, counted positive when it falls.

Source of the values: ChEMBL document CHEMBL5038581, “Design, synthesis, and biological evaluation of novel dual inhibitors targeting lysine specific demethylase 1 (LSD1) and histone deacetylases (HDAC) for treatment of gastric cancer” (Eur J Med Chem, 2021).
